# Patent US10363251B2, “(+)-morphinans as antagonists of toll-like receptor 9 and therapeutic uses thereof” (Mallinckrodt LLC, priority 2009, dated 2019)
# Entries after “also recorded” stand apart in the source; their conditions may differ.
# Assays:
# TLR9 [1] = target: T1, TLR9 (Homo sapiens, UniProt Q9NR96); assay: TLR9 screening of (+)-morphinan library, SEAP reporter in HEK293 cells expressing TLR9; format: cell-based; details: activator ODN2006; for OD 650 nm (mean ± sd): control (no activator) 0.14, activator 1.42 OD
# T1 construct: expressed in transfected cells; host or cells: HEK293
# T1 sequence (Q9NR96 26-1032): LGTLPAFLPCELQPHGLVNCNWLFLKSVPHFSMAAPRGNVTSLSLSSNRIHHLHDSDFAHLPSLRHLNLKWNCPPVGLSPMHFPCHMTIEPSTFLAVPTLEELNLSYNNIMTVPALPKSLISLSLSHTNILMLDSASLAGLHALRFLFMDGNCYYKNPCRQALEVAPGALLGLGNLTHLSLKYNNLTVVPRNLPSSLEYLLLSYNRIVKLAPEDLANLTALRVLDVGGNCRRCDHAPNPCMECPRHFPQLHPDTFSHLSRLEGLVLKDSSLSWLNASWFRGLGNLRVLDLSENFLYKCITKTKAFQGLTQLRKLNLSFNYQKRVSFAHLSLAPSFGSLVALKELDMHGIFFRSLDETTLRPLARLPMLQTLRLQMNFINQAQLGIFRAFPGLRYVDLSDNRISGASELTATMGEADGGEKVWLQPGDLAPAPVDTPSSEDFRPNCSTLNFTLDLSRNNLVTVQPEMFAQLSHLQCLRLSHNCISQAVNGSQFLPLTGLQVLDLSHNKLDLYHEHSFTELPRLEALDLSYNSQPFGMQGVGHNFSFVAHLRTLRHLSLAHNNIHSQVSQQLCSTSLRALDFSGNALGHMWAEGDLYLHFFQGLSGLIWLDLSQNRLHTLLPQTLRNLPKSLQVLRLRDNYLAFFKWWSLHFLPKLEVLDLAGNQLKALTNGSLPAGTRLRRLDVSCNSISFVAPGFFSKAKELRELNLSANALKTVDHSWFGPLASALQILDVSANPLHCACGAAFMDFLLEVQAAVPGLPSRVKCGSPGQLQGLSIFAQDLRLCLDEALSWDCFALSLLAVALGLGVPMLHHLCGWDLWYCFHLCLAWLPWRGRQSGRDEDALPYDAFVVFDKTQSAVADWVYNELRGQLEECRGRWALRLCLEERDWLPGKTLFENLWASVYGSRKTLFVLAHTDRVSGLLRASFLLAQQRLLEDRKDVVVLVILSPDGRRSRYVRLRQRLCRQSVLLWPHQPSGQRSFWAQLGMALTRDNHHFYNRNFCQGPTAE
# In short: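 HEK293 cells expressing TLR9 with an NF-κB-inducible SEAP reporter were preincubated with compound at 10 μM and 100 nM for 30 min at 37 °C, then stimulated with ODN2006. SEAP was read as OD 650 nm after 16-20 h, in triplicate.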
# TLR9 [2] = assay: IFN-β up-regulation in plasmacytoid dendritic cells by TLR9 agonist ODN2395; format: cell-based
# Excerpt: (§1) TLR9 signalling involves activation of NF-κB and IRF downstream pathways. The (+)-morphinan inhibited both of these pathways following activation of TLR9 (but not activation of TLR4 or other receptors). The type C TLR9 agonist, ODN2395, and the TL4 agonist, LPS, both induce up-regulation of IL-1β in peritoneal macrophages via activation of NF-κB.
# [3] = test system: cytoplasmic DNA receptor AIM2; assay: IFN-β up-regulation in plasmacytoid dendritic cells by poly (dA:dT); format: cell-based
# Excerpt: as §1
# [4] = test system: hepatic IR injury in steatotic livers; assay: IR injury in high fat diet (HFD) steatotic liver model; format: in vivo, mouse
# Excerpt: In addition to the scarcity of liver donations, many of the donor livers have a significant degree of steatosis which is known to increase IR injury. Thus, many otherwise healthy, but steatotic, livers are rejected for transplantation. If a drug can be shown to reduce IR injury in steatotic livers it would allow use of steatotic livers for transplantation and increase the total number of liver transplants that could be performed. To test this, mice were placed on a high fat diet (HFD) for 12 weeks to induce hepatic steatosis, which was followed by IR injury. For this, mice were subjected to hepatic ischemia by occluding the vasculature supplying the left and median lobes (ischemic lobes) of the liver by a microvascular clamp. After 1 hour of ischemia, the blood supply was resumed (reperfusion). Some animals were sacrificed after 3 hour of reperfusion, and others after 12 hours or reperfusion. The experimental group received Cmpd II-78 at a dose of 80 mg/kg given intraperitoneally 1 hour prior to starting ischemia. Cellular and molecular responses were assessed essentially as described above in Example 9.
# [5] = test system: Experimental Autoimmune Encephalomyelitis (EAE); details: bid for 20 days; Cmpd II-98 5 mg/kg sc, others 20 mg/kg sc, Prednisolone 4.5 mg/kg ip; vs vehicle control
# [6] = test system: chronic constriction injury (CCI) neuropathic pain model; assay: Reversal of allodynia (von Frey) in CCI rats, 4 days of dosing, Example 4; format: in vivo, rat; details: i.p. once a day for 4 days from day 14; tested 3 hrs after dosing; ultra low to high dose; vs saline
# Method: Allodynia was induced in a group of (male, Sprague-Dawley) rats essentially as described above in Example 3. Prior to surgery, animals were tested to establish their baseline von Frey scores. Any animal with a Log absolute von Frey score lower than 4.65 on either leg was excluded from the study. CCI surgery was performed on the left sciatic nerve as detailed above. On days 4 and 14 post-surgery, the animals were tested using the von Frey test of mechanical allodynia to ensure that allodynia was established.
# Beginning at about day 14 post-surgery, the animals were dosed once a day for 4 days. Compounds II-25, II-93, II-62, and III-2 were tested. All drugs were administered intraperitoneally (i.p.). Allodynia was tested prior to and again 3 hrs after each dosing. Drug administration and testing was done blindly. After the 4th day of dosing, the animals were sacrificed, cardiac perfusion was performed, and spinal cords were removed and stored for further analysis.
# All data were analyzed using 2-way ANOVA's with Bonferroni's post hoc test compared to saline unless otherwise stated. Area under curve (AUC) was calculated using Graphpad Prism and comparisons were made using 1-way ANOVA with Dunnet's post hoc test.
Compound,OD 650 nm (mean ± sd) (TLR9 [1]; 100 nM) [OD],OD 650 nm (mean ± sd) (TLR9 [1]; 10 μM) [OD],"inhibition at 0.1 µM (TLR9 [1]; HEK293, read-out: % Inhibition (mean), 100 nM) [%]","inhibition at 10 µM (TLR9 [1]; HEK293, read-out: % Inhibition (mean), 10 μM) [%]",IFN-β mRNA up-regulation (IRF pathway) (TLR9 [2]),IFN-β up-regulation [3],"IR-induced activation of MAP kinases (western blotting), steatotic livers ([4]; HFD)","IR-induced cleavage and activation of TLR9 (western blotting), steatotic livers ([4]; HFD)","Histological Suzuki score (hepatic IR injury), steatotic livers ([4]; HFD 12 weeks, 80 mg/kg ip 1 hour prior to ischemia, 3 and 12 hours of reperfusion)","IR-induced serum ALT levels, steatotic livers ([4]; HFD, 80 mg/kg ip, 3 and 12 hours of reperfusion)","Anti-inflammatory molecule IL-1Ra mRNA, steatotic livers ([4]; HFD, 12 hours of reperfusion)","IR-induced pro-inflammatory cytokines (IL-1β, MCP-1, NLPR3 mRNA), steatotic livers ([4]; HFD, 12 hours of reperfusion)",EAE clinical scores [5],Reversal of allodynia (von Frey) [6]
CN[C@@H]1CC[C@]2(O)[C@@H]3Cc4ccc(O)c5c4[C@]2(CCN3CC2CC2)[C@@H]1O5 [II-78],0.14 ± 0.02,0.11 ± 0.01,90,92,this activation was inhibited; also recorded: reduced both NFκB- and IRF-dependent pathways downstream of TLR9,this activation was not blocked,reduction of IR-induced activation of MAP kinases,reduction of IR-induced cleavage and activation of LTR9,reduced hepatic ischemic reperfusion (IR) injury in steatotic livers,reduced IR-induced serum alanine transaminase (ALT) levels in steatotic livers,increased an anti-inflammatory molecule,reduced IR-induced pro-inflammatory cytokines,did not improve EAE,–
"C=CCN1CC[C@]23c4c5ccc(O)c4O[C@H]2C(=O)CC[C@]3(O)[C@H]1C5 [(+)-Naloxone, (+)-naloxone]",–,–,–,–,–,–,–,–,–,–,–,–,–,not effective at reversing allodynia
